Assay results as given in ChEMBL document CHEMBL3885861, “Open TG-GATES”.

Species: Rattus norvegicus
Assay: Open TG-GATES - Regimen: Single
Format: toxicity, organism-based, Sprague-Dawley
Set-up: regimen Single, gender Male, age 6 weeks
Conditions: in vivo, po, 0 mg/kg, route gavage, dose level Control; for APTT / Bas / Eos / Fbg / Hb / Ht / Lym / MCH / MCHC / MCV / Mono / Neu / PT / Plat / RBC / Ret / WBC: tissue Blood; for KIDNEY_L / KIDNEY_R / KIDNEY_TOTAL: tissue Kidney; for LIVER: tissue Liver; for A/G / ALP / ALT / AST / BUN / CRE / Ca / Cl / DBIL / GLC / IP / K / LDH / Na / PL / RALB / TBIL / TC / TG / TP / gamma-GTP: tissue Plasma

## Nc1nc(N)c2nc(-c3ccccc3)c(N)nc2n1
3 h
  TERMINAL_BW: 212 g
  APTT: 16.9 s
  Bas: 0%
  Eos: 1%
  Fbg: 287.4 mg/dL
  Hb: 13.9 g/dL
  Ht: 42%
  Lym: 79.2%
  MCH: 21.4 pg
  MCHC: 33%
  MCV: 64.6 fL
  Mono: 3.2%
  Neu: 16%
  PT: 14.2 s
  Plat: 114.1 x10_4/uL
  RBC: 651 x10_4/ul
  Ret: 7.4%
  WBC: 92.6 x10_2/uL
  KIDNEY_L: 1 g
  KIDNEY_R: 1 g
  KIDNEY_TOTAL: 1.9 g
  LIVER: 9.3 g
  A/G: 1
  ALP: 1479.4 IU/L
  ALT: 44.2 IU/L
  AST: 76.6 IU/L
  BUN: 9.4 mg/dL
  CRE: 0.2 mg/dL
  Ca: 11 mg/dL
  Cl: 105.2 meq/L
  DBIL: 0.008 mg/dL
  GLC: 173.4 mg/dL
  IP: 9.2 mg/dL
  K: 3.9 meq/L
  LDH: 58.4 IU/L
  Na: 143.2 meq/L
  PL: 143.4 mg/dL
  RALB: 2.6 g/dL
  TBIL: 0.06 mg/dL
  TC: 79.6 mg/dL
  TG: 50.8 mg/dL
  TP: 5.3 g/dL
  gamma-GTP: 1 IU/L
6 h
  TERMINAL_BW: 211.8 g
  APTT: 16.8 s
  Bas: 0%
  Eos: 0.4%
  Fbg: 302.8 mg/dL
  Hb: 13.9 g/dL
  Ht: 42.3%
  Lym: 77.2%
  MCH: 21.3 pg
  MCHC: 32.9%
  MCV: 64.8 fL
  Mono: 2.6%
  Neu: 19%
  PT: 14 s
  Plat: 123.2 x10_4/uL
  RBC: 653.2 x10_4/ul
  Ret: 7.4%
  WBC: 93.6 x10_2/uL
  KIDNEY_L: 1 g
  KIDNEY_R: 1 g
  KIDNEY_TOTAL: 1.9 g
  LIVER: 9.6 g
  A/G: 0.9
  ALP: 1424.2 IU/L
  ALT: 34.6 IU/L
  AST: 69.2 IU/L
  BUN: 9.6 mg/dL
  CRE: 0.2 mg/dL
  Ca: 10.8 mg/dL
  Cl: 104.6 meq/L
  DBIL: 0.012 mg/dL
  GLC: 179.2 mg/dL
  IP: 9.7 mg/dL
  K: 4.2 meq/L
  LDH: 57.2 IU/L
  Na: 142.8 meq/L
  PL: 146.8 mg/dL
  RALB: 2.6 g/dL
  TBIL: 0.066 mg/dL
  TC: 77.8 mg/dL
  TG: 84 mg/dL
  TP: 5.3 g/dL
  gamma-GTP: 1.2 IU/L
9 h
  TERMINAL_BW: 210.8 g
  APTT: 16.3 s
  Bas: 0.2%
  Eos: 1%
  Fbg: 304.2 mg/dL
  Hb: 13.6 g/dL
  Ht: 41.1%
  Lym: 73%
  MCH: 20.5 pg
  MCHC: 33%
  MCV: 62.2 fL
  Mono: 2%
  Neu: 23.2%
  PT: 14 s
  Plat: 119.1 x10_4/uL
  RBC: 661.2 x10_4/ul
  Ret: 7.1%
  WBC: 83.6 x10_2/uL
  KIDNEY_L: 1 g
  KIDNEY_R: 1 g
  KIDNEY_TOTAL: 1.9 g
  LIVER: 8.5 g
  A/G: 1
  ALP: 1497.4 IU/L
  ALT: 36.6 IU/L
  AST: 68 IU/L
  BUN: 10 mg/dL
  CRE: 0.2 mg/dL
  Ca: 10.6 mg/dL
  Cl: 106 meq/L
  DBIL: 0.008 mg/dL
  GLC: 173.8 mg/dL
  IP: 9.4 mg/dL
  K: 3.9 meq/L
  LDH: 53.2 IU/L
  Na: 143.6 meq/L
  PL: 132.6 mg/dL
  RALB: 2.5 g/dL
  TBIL: 0.058 mg/dL
  TC: 74 mg/dL
  TG: 41.4 mg/dL
  TP: 5.2 g/dL
  gamma-GTP: 1.4 IU/L
24 h
  TERMINAL_BW: 228.1 g
  APTT: 17.1 s
  Bas: 0%
  Eos: 1%
  Fbg: 291 mg/dL
  Hb: 14 g/dL
  Ht: 41.9%
  Lym: 76%
  MCH: 21.5 pg
  MCHC: 33.4%
  MCV: 64.3 fL
  Mono: 2.2%
  Neu: 19.8%
  PT: 13.7 s
  Plat: 120.8 x10_4/uL
  RBC: 652 x10_4/ul
  Ret: 6.9%
  WBC: 78.2 x10_2/uL
  KIDNEY_L: 1 g
  KIDNEY_R: 1 g
  KIDNEY_TOTAL: 2 g
  LIVER: 10.9 g
  A/G: 0.9
  ALP: 1674.6 IU/L
  ALT: 47.4 IU/L
  AST: 72.2 IU/L
  BUN: 15 mg/dL
  CRE: 0.2 mg/dL
  Ca: 11.2 mg/dL
  Cl: 104.2 meq/L
  DBIL: 0.01 mg/dL
  GLC: 188.6 mg/dL
  IP: 8.2 mg/dL
  K: 4.2 meq/L
  LDH: 72.4 IU/L
  Na: 142.6 meq/L
  PL: 158.6 mg/dL
  RALB: 2.7 g/dL
  TBIL: 0.044 mg/dL
  TC: 80.2 mg/dL
  TG: 109.8 mg/dL
  TP: 5.5 g/dL
  gamma-GTP: 1 IU/L
